From patent US5451564A, “Antimicrobial composition comprising N-hydroxy heterocyclic thiones” (priority 1991, dated 1995)

Assays:
Eshcerichia coli = conditions: agar, 4 days at 25° C; 1% dispersion in 0.1 molar pyrophosphate (sample a: nil)
Experimental: (§1) In the microbiological testing, the compositions were tested for anti-microbial activity against bacteria and/or fungi including a yeast. The bacteria used were one or more of Eshcerichia coli, Pseudomonas aeruginosa, Staphylococcus aureus and Bacillus subtills. The fungi/yeast used were one or more of Aspergillus niger, Candida albicans, Aureobasidum pullulans, Gliocladium roseum, and Penicillium pinophilum.
(§2) These test organisms will be referred to hereafter as EC, PA, SA, BS, AN CA, AP, GR and PP respectively.
(§3) The material to be tested was dissolved in a suitable solvent and the solution obtained diluted with a further quantity of the same solvent to give a desired product concentration.
(§4) To a suitable agar medium was added a quantity of the product solution to give a desired concentration of the product. The agar medium containing the product was poured into petri dish plates and allowed to set.
(§5) The test organisms were surface inoculated onto the test plates by means of a multi-point inoculator. Each test plate was inoculated with both bacteria, fungi and yeast. The plates were incubated for four days at 25° C.
(§6) At the end of the incubation period, the plates were assessed visually for growth of the micro-organisms. The concentration of the product which inhibited the growth of a particular micro-organisms was recorded. This is the minimum inhibitory concentration (M.I.C.).
(§7) Generally, the compositions are evaluated against bacteria at the 25 and 100 ppm levels, and against fungi and yeast at the 5, 25 and 100 ppm levels.
(§8) 1% dispersions of the 1:2 zinc complex obtained from 1-hydroxy-2-pyridinethione were prepared in 0.1 molar solutions of various pyrophosphates as described in Example 1.

Bacillus subtills = conditions: agar, 4 days at 25° C; 1% dispersion in 0.1 molar pyrophosphate (sample a: nil)
Experimental: as §1, §2, §3, §4, §5, §6, §7, §8

Penicillium pinophilum = conditions: agar, 4 days at 25° C; 1% dispersion in 0.1 molar pyrophosphate (sample a: nil)
Experimental: as §1, §2, §3, §4, §5, §6, §7, §8

Candida albicans = conditions: agar, 4 days at 25° C; 1% dispersion in 0.1 molar pyrophosphate (sample a: nil)
Experimental: as §1, §2, §3, §4, §5, §6, §7, §8

Aureobasidum pullulans = conditions: agar, 4 days at 25° C; 1% dispersion in 0.1 molar pyrophosphate (sample a: nil)
Experimental: as §1, §2, §3, §4, §5, §6, §7, §8

Aspergillus niger = conditions: agar, 4 days at 25° C; 1% dispersion in 0.1 molar pyrophosphate (sample a: nil)
Experimental: as §1, §2, §3, §4, §5, §6, §7, §8

Staphylococcus aureus = conditions: agar, 4 days at 25° C; 1% dispersion in 0.1 molar pyrophosphate (sample a: nil)
Experimental: as §1, §2, §3, §4, §5, §6, §7, §8

Gliocladium roseum = conditions: agar, 4 days at 25° C; 1% dispersion in 0.1 molar pyrophosphate (sample a: nil)
Experimental: as §1, §2, §3, §4, §5, §6, §7, §8

Pseudomonas aeruginosa = conditions: agar, 4 days at 25° C; 1% dispersion in 0.1 molar pyrophosphate (sample a: nil)
Experimental: as §1, §2, §3, §4, §5, §6, §7, §8

[1] = aqueous solubility of zinc complex after milling in pyrophosphate solution and dilution with distilled water until clear; format: physicochemical; conditions: for solubility in the presence of pyrophosphate (in words): relative to absence of oxy-phosphorus compound
Experimental: The concentration of the 2:1 zinc complex was then determined.
The zinc complex was milled in a 0.1 molar solution of tetrasodium pyrophosphate as described in Example 1. This was then diluted with distilled water until a clear solution was obtained.
These solutions were prepared by the method described in Example 1.

[2] = system: mixed algal suspension (Stichococcus bacillaris, Gloecapsa alpicola, Nostoc commune, Trentepohlia aurea); conditions: zinc complex of 1-hydroxy-2-pyridinethione as 1% dispersion in 0.1M pyrophosphate (sample a: nil); re-challenge after 2 weeks, examined after 4 weeks
Experimental: A sample containing no biocide was include as a control.
The above aliquots were then inoculated with 0.1 parts by volume of a mixed algal suspension of 7 day cultures of the following algae.
The samples were then incubated at 15° to 20° C. and exposed to artificial illumination of between 700 and 1200 LUX over a two week period, where the illumination was provided from the side and the light varied over a 24 hour period to give 16 hours illumination and 8 hours darkness.
After a two week incubation period, the samples were re-challenged with the mixed algal inoculum, and again examined after a 4 week incubation period. The minimum inhibitory concentration at which algal growth was suppressed was then established by visual assessment.

[3] = system: bacteria, fungi, yeasts and algae; conditions: in the presence of pyrophosphate salts
Experimental: Further aspects of the present invention are described in the following illustrative examples. Unless otherwise stated all refer to parts by weight.
as §1

[4] = system: Pseudomonas aeruginosa (ATCC 19429); assay: survival of bacteria in shampoo preserved with biocide; format: cell-based
Experimental: A shampoo having the following composition
*Empicol, Empilan and Empigen are registered Trademarks of Albright and Wilson, was prepared by stirring the Empicol ESB70 in water, and then adding the Empilan 2502 followed by the Empigen BB to give a clear homogenous solution. An aqueous solution of citric acid was added with stirring to give a pH of 7. Finally, the sodium chloride was added and the whole diluted to parts by adding water.
Aliquots (20 parts) of the above shampoo were then prepared with concentrations of the biocides indicated in Table 4 at 500, 125, 31.25 and 7.8 ppm of active ingredient.
The above samples were then challenged with a 0.2 parts by volume inoculum of a 24 hour culture of Pseudomonas aeruginosa (ATCC 19429) containing approximately 1×10^8 colony forming units (cfu's) per milliliter. The samples were then incubated in the dark at 25° C., 1 milliliter samples taken after 24 hours, 48 hours and 7 days and the number of surviving bacteria determined.
The procedure described in Example 7 was repeated, except that the compounds and formulations used in that example were replaced by a commercially available formulation of zinc pyrithione or a 1% dispersion of the 2:1 complex of 1-hydroxy-2-pyridinethione and zinc in an aqueous solution of 0.1M tetrasodium pyrophosphate prepared as described in Example 1.

| SMILES | MIC EC (Eshcerichia coli) | MIC BS (Bacillus subtills) | MIC PP (Penicillium pinophilum) | MIC CA (Candida albicans) | MIC AP (Aureobasidum pullulans) | MIC AN (Aspergillus niger) | MIC SA (Staphylococcus aureus) | MIC GR (Gliocladium roseum) | MIC PA (Pseudomonas aeruginosa) | Solubility ([1]; 1:2 zinc complex of 1-hydroxy-2-pyridinethione, pebble milled in 0.1 molar pyrophosphate salt (sample a: nil), diluted with distilled water) | solubility in the presence of pyrophosphate (in words) [1] | MIC (algal growth suppressed) [2] | effect of increased solubility in pyrophosphate on microbiological activity [3] | Solubility ([1]; zinc dithiocarbamate complexes, nil or 0.1 M tetrasodium pyrophosphate) | viable bacteria ([4]; 125 ppm, after 24 HRS) | viable bacteria ([4]; 125 ppm, after 48 HRS) | viable bacteria ([4]; 500 ppm, after 7 DAYS) | viable bacteria ([4]; 500 ppm, after 24 HRS) | viable bacteria ([4]; 500 ppm, after 48 HRS) |
| --- | --- | --- | --- | --- | --- | --- | --- | --- | --- | --- | --- | --- | --- | --- | --- | --- | --- | --- | --- |
| On1ccccc1=S.On1ccccc1=S.[Zn] [a, 1:2 zinc complex of 1-hydroxy-2-pyridinethione] | 25 ppm | 25 ppm | 5 ppm | 25 ppm | 5 ppm | 25 ppm | 25 ppm | 5 ppm | NA (Not active at 100 ppm) | < 10 ppm | improved solubility | 0.64 ppm | does not adversely affect the microbiological activity |  |  |  |  |  |  |
| S=C([S-])NCCNC(=S)[S-].[Zn+2] [EBD, zinc complex of ethylene bis dithiocarbamate] |  |  |  |  |  |  |  |  |  |  | increased solubility |  |  | < 5 ppm |  |  |  |  |  |
| CN(C)C(=S)[S-].CN(C)C(=S)[S-].[Zn+2] [ZDM, zinc complex of dimethyldithiocarbamate] |  |  |  |  |  |  |  |  |  |  |  |  |  |  | < 10 | < 10 | < 10 | < 10 | < 10 |
